Source: patent US20080279897A1, “Method of Treating Cellular Damage” (MEDVET SCIENCE PTY. LTD., priority 2005, published 2008)

How the values were obtained:
[1] = system: SphK; assay: SphK activity in HUVEC; assay type: cell-based, human; settings: for effect on SphK activity: 22 mmol/L, osmotic control; for effect on high glucose-induced increases in SphK activity: PD98059 10 μM, U0126 2 μM
Experimental: Human umbilical vein EC (HUVEC) and bovine aortic EC (BAEC) were routinely cultured in this laboratory as previously described ([…] et al., 2004, Circ. Res. 94:1515-1522). In all experiments EC ranging from passage 2-6 were used. For the experimental studies, EC were allowed to reach confluence in the regular growth media. Medium was then changed to (i) EBM (Clonetics, Walkersville, Md.) containing 1% FCS and 5.5 mM glucose (normal glucose, NG); (ii) NG medium supplemented with additional glucose to final concentration of 22 mM (high glucose); or (iii) NG medium containing 16.5 mM L-glucose or mannitol that served as an osmotic control for the high glucose medium. As described previously (Xia et al., 1999, J. Biol. […] The formation of S1P in vivo was measured in the permeabilized cells as previously described (Xia et al., 1998, Proc. Natl. Acad. Sci. U.S.A 95:14196-14201).

[2] = system: PKC; assay: PKC activity assay in situ in HUVEC; assay type: cell-based, human; settings: 2.5 μmol/L, high glucose
Experimental: PKC activity was measured in situ as described previously (Xia et al., 1996, J. Clin. Invest 98:2018-2026). Briefly, cells were seeded in 24-well plates and exposed to NG or HG for 3 days. After the indicated treatments, total PKC activity was then determined in permeabilized cells in the presence of 10 μM [γ^32P]ATP (5000 cpm/pmol) and the PKC-specific peptide substrate (RKRTLRRL, 200 μM). The activity was then quantified by scintillation counting and normalized to total protein levels.

[3] = system: VCAM-1; assay: Cell surface VCAM-1 expression in HUVEC by flow cytometry; assay type: cell-based, human
Experimental: (§1) Human umbilical vein EC (HUVEC) and bovine aortic EC (BAEC) were routinely cultured in this laboratory as previously described (Verrier et al., 2004, Circ. Res. 94:1515-1522). In all experiments EC ranging from passage 2-6 were used. For the experimental studies, EC were allowed to reach confluence in the regular growth media. Medium was then changed to (i) EBM (Clonetics, Walkersville, Md.) containing 1% FCS and 5.5 mM glucose (normal glucose, NG); (ii) NG medium supplemented with additional glucose to final concentration of 22 mM (high glucose); or (iii) NG medium containing 16.5 mM L-glucose or mannitol that served as an osmotic control for the high glucose medium.
(§2) After the indicated treatment, HUVECs were incubated with primary monoclonal antibodies to VCAM-1, ICAM-1 and E-selectin or an isotype-matched non-relevant antibody for 30 min. Cells were then incubated with FITC-conjugated secondary antibody and fixed in 2.5% formaldehyde. The expression of cell-surface adhesion molecules was measured as fluorescence intensity by use of a Coulter Epics Profile XL flow cytometer, as described previously (Verrier et al., 2004, supra).

[4] = system: ICAM-1; assay: Cell surface ICAM-1 expression in HUVEC by flow cytometry; assay type: cell-based, human
Experimental: as §1, §2

[5] = system: E-selectin; assay: Cell surface E-selectin expression in HUVEC by flow cytometry; assay type: cell-based, human; settings: for effect on E-selectin expression: 5 μM for 6 hrs
Experimental: as §1, §2

[6] = system: NF-κB; assay: NF-κB electrophoretic mobility shift assay in HUVEC; assay type: cell-based, human; settings: 2.5 μM, gel shift
Experimental: (§3) Nuclear extracts were prepared from EC exposed to NG or HG with or without the indicated treatment. The double-stranded oligonucleotides used as probes in the experiments included 5′-[…]-3′ (SEQ ID NO: 1) which contains a consensus NF-κB binding site in E-selectin promoter (underlined). Gel mobility shift of a consensus NF-κB oligonucleotide was performed by incubating a ^32P-labelled NF-κB probe with 4 μg of nuclear proteins as described previously (Xia et al., 1998, supra).

[7] = system: SphK; assay: SphK activity in BAEC (parental or transfected); assay type: cell-based, bovine; settings: for effect on SphK activity: BAEC, 22 mmol/L, osmotic control
Experimental: as §1
(§4) FLAG-tagged human wild-type SphK1 cDNA and the dominant negative SphK1^G82D were sub-cloned into pcDNA3 plasmids (Invitrogen, Melbourne, Australia) as previous described (Pitson et al., 2000, J. Biol. Chem. 275:33945-33950). Lipofectamine 2000 (Invitrogen) mediated transfection was performed in BAEC according to the manufacturer's protocols. For stable expression, the transfectants were selected in medium containing 800 μg/ml G418 (Invitrogen). The resulting non-clonal pools of G418-resistant transfected cells were then collected and used to avoid clonal variability. The expression of FLAG-tagged transgenes was determined by Westernblot assay with the antibodies against FLAG (M2, Sigma, Clayton, Australia).
(§5) As described previously (Xia et al., 1999, J. Biol. Chem. 274:34499-34505), SphK activity was routinely determined using D-erythro-sphingosine (Biomol, Plymouth Meeting, Pa.) and [γ^32P]ATP (Geneworks, Adelaide, Australia) as substrates, and defined as picomoles of S1P formed per min per mg protein. The formation of S1P in vivo was measured in the permeabilized cells as previously described (Xia et al., 1998, Proc. Natl. Acad. Sci. U.S.A 95:14196-14201).

[8] = system: S1P formation; assay: S1P formation in endothelial cells; assay type: cell-based, human; settings: 22 mmol/L
Experimental: as §1, §5

[9] = system: U937 cells adhering to HUVEC; assay: Adherence of U937 cells to HUVEC; assay type: cell-based, human; settings: 50 ng/ml
Experimental: (§6) U937 cells (CRL 1593.2; ATCC) were grown in RPMI-1640 medium (GIBCO BRL) containing 10% FCS, collected by low-speed centrifugation and resuspended at a density of 2×10^5 cells/ml in medium without FCS. EC were seeded into 24-well plates and cultured with NG or HG medium for 3 days after confluence. After washing twice with warm RPMI-1640 medium, the U937 cell suspension (100 μl/well) was added and incubated for 30 minutes at 37° C. Non-adherent cells were removed by rinsing the plates three times with PBS, and the number of adherent cells was then counted under microscopy with at least 6 fields per well culture being quantified.

[10] = system: U937 cells adhering to BAEC; assay: Adherence of U937 cells to transfected BAEC; assay type: cell-based, bovine; settings: stably transfected BAEC, 22 mM glucose 3 days
Experimental: as §4, §6

[11] = system: NF-κB; assay: NF-κB electrophoretic mobility shift assay in BAEC; assay type: cell-based, bovine; settings: gel shift
Experimental: as §4, §3

[12] = 2.5 μmol/L, 3 days high glucose

CCCCCCCCCCCCC/C=C/[C@@H](O)[C@H](CO)N(C)C [DMS, N′N′-dimethylsphingosine]
inhibition of high glucose-induced SphK activity ([1]; 2.5 μmol/L): capable of inhibiting | inhibitory effect on PKC activity [2]: no inhibitory effect | effect on high glucose-induced increase in VCAM-1 expression [3, 12]: completely abolished | effect on high glucose-induced increase in ICAM-1 expression [4, 12]: completely abolished | effect on high glucose-induced increase in E-selectin expression [5, 12]: completely abolished | effect on high glucose-induced NF-κB activation [6]: completely inhibited

CN(C)CCCn1cc(C2=C(c3c[nH]c4ccccc34)C(=O)NC2=O)c2ccccc21 [GF109203X]
attenuation of high glucose-induced increases in SphK activity ([1]; 5 μM, 30 min): ~50%

O=C[C@@H](O)[C@H](O)[C@@H](O)[C@@H](O)CO [L-glucose]
effect on SphK activity [1]: neither mannitol nor L-glucose at 22 mmol/L had any significant effects | effect on SphK activity [7]: neither mannitol nor L-glucose at 22 mmol/L had any significant effects | effect on S1P production [8]: fails to activate sphingosine kinase or effect S1P production

COc1cccc(-c2cc(=O)c3ccccc3o2)c1N [PD98059]
effect on high glucose-induced increases in SphK activity ([1]; 30 min): completely prevented

CCCCCCCCCCCCC/C=C/[C@@H](O)[C@@H](N)COP(=O)(O)O [S1P, sphingosine-1-phosphate]
effect on E-selectin expression [5]: significant increase

N#CC(=C(/N)Sc1ccccc1N)/C(C#N)=C(\N)Sc1ccccc1N [U0126]
effect on high glucose-induced increases in SphK activity ([1]; 30 min): completely prevented

CCCCCCCCCCCCCCC[C@@H](O)[C@@H](N)COP(=O)(O)O [dihydro-S1P, sphinganine-1-phosphate]
effect on E-selectin expression [5]: no significant effect

OC[C@@H](O)[C@@H](O)[C@H](O)[C@H](O)CO [mannitol]
effect on SphK activity [1]: neither mannitol nor L-glucose at 22 mmol/L had any significant effects | effect on SphK activity [7]: neither mannitol nor L-glucose at 22 mmol/L had any significant effects | effect on S1P production [8]: fails to activate sphingosine kinase or effect S1P production

lysophosphatidic acid [LPA]
effect on E-selectin expression [5]: significant increase

pertussis toxin
inhibition of high glucose-induced expression of VCAM-1 ([3]; 50 ng/ml, vs untreated cells): 30% | inhibition of high glucose-induced expression of ICAM-1 ([4]; 50 ng/ml, vs untreated cells): 42% | inhibition of high glucose-induced expression of E-selectin ([5]; 50 ng/ml, vs untreated cells): 35% | inhibition of LPA-induced E-selectin expression ([5]; 5 μM LPA 6 hrs, PTX 50 ng/ml): completely inhibited | inhibition of S1P-induced E-selectin expression ([5]; 5 μM S1P 6 hrs, PTX 50 ng/ml): 32% | number of leukocytes adhering to high glucose-stimulated EC [9]: partially, but significantly, reduced

B1: SphK^WT: FLAG-tagged wild-type human SphK1 stably overexpressed in BAEC by transfection (protein, UniProt Q9NYA1 1-384, looked up)
Sphingosine kinase 1: MDPAGGPRGVLPRPCRVLVLLNPRGGKGKALQLFRSHVQPLLAEAEISFTLMLTERRNHARELVRSEELGRWDALVVMSGDGLMHEVVNGLMERPDWETAIQKPLCSLPAGSGNALAASLNHYAGYEQVTNEDLLTNCTLLLCRRLLSPMNLLSLHTASGLRLFSVLSLAWGFIADVDLESEKYRRLGEMRFTLGTFLRLAALRTYRGRLAYLPVGRVGSKTPASPVVVQQGPVDAHLVPLEEPVPSHWTVVPDEDFVLVLALLHSHLGSEMFAAPMGRCAAGVMHLFYVRAGVSRAMLLRLFLAMEKGRHMEYECPYLVYVPVVAFRLEPKDGKGVFAVDGELMVSEAVQGQVHPNYFWMVSGCVEPPPSWKPQQMPPPEEPL
modifications: FLAG tag
notes: FLAG-tagged wild-type human SphK1 stably overexpressed in BAEC by transfection
basal level of SphK activity, higher than control cells ([7]; stably transfected BAEC): 10 fold | number of leukocytes adhering to high glucose-stimulated BAEC [10]: markedly enhanced

B2: SphK^G82D: point mutation of human SphK1, dominant-negative mutant, stably expressed in BAEC by transfection (protein, UniProt Q9NYA1 1-384, looked up, variant G82D)
Sphingosine kinase 1: MDPAGGPRGVLPRPCRVLVLLNPRGGKGKALQLFRSHVQPLLAEAEISFTLMLTERRNHARELVRSEELGRWDALVVMSGDDLMHEVVNGLMERPDWETAIQKPLCSLPAGSGNALAASLNHYAGYEQVTNEDLLTNCTLLLCRRLLSPMNLLSLHTASGLRLFSVLSLAWGFIADVDLESEKYRRLGEMRFTLGTFLRLAALRTYRGRLAYLPVGRVGSKTPASPVVVQQGPVDAHLVPLEEPVPSHWTVVPDEDFVLVLALLHSHLGSEMFAAPMGRCAAGVMHLFYVRAGVSRAMLLRLFLAMEKGRHMEYECPYLVYVPVVAFRLEPKDGKGVFAVDGELMVSEAVQGQVHPNYFWMVSGCVEPPPSWKPQQMPPPEEPL
SphK activation under high glucose conditions ([7]; BAEC expressing the mutant, 22 mM glucose 3 days): no SphK activation | number of leukocytes adhering to high glucose-stimulated BAEC [10]: profoundly attenuated | high glucose-induced NF-κB activation in cells expressing the mutant [11]: incapable of activating NF-κB
